Three molecules from patent publication US7777033B2, “Monomer with anti-microbial character, polymer using the same, and manufacturing method thereof” (Micro Science Tech Co., Ltd., priority 2005, dated 2010) can be followed below.

Structures are written as SMILES.

One data set relates to E. coli (KCTC 1682). The data set is described as follows: Strain reduction rate determination (shake flask method). In kind it is cell-based. The following applies: for Right After Inoculation (number of bacteria): 5 minutes after inoculation, 0.1 g powder or 2 ml stock solution; for After 24 hours (number of bacteria): 24 hours incubation with agitation; for Strain Reduction Rate: vs control after 24 hours. On the procedure:
(§1) The antimicrobial test was conducted by strain reduction rate determination (shake flask method). As the samples, 0.1 g of each of the compounds of Examples 9, 13, 15, and 18 to 23 was used in the form of powder, and in the case of Examples 28 to 31, 2 ml of their stock solution was used. The buffer solutions used in the antibacterial test were those prepared by dissolving each of 28.39 g of […] and 23.99 g of NaH2PO4 in 1000 ml of purified water, blending them in the volume of 72 ml and 28 ml respectively, adding 5 g of NaCl thereto, and then pouring purified water thereinto to adjust their total volume to 1000 ml. As the control, the same bacterial strains, to which no samples were added, were used. The samples were mixed with bacterial strain inocula (5.0×105), which were then incubated while agitating for 24 hours and then incubated on agar media. The reduction rate of strain number was determined by the following Equation 1. (Reduction Rate %)={(A−B)/A}×100 [Equation 1]
(§2) A: Number of Bacteria in Control after 24 Hours
(§3) B: Number of Bacteria in Sample after 24 Hours
(§4) In Table 6 above, “right after inoculation” refers to after 5 minutes from the time the bacterial strains were inoculated.

For the next data set, the system named is S. aureus (KCTC 1621). The data set is described as above. In kind it is cell-based. The conditions noted are these: for Right After Inoculation (number of bacteria): 5 minutes after inoculation, 0.1 g powder or 2 ml stock solution; for After 24 hours (number of bacteria): 24 hours incubation with agitation; for Strain Reduction Rate: vs control after 24 hours. On the procedure:
as §1, §2, §3, §4

A short description of data set [1]: Light stability test (colour change over 3 months). Type of data set: physicochemical. The following applies: for Discoloration: installed in the place where light was shut off. The text has this: The antimicrobial monomers manufactured in Examples 9 and 10 and the antimicrobial acrylic copolymers manufactured in Examples 17 to 23 were used as samples. 3 g of each sample were respectively put in lucid glass test tubes, which were then placed under a direct ray of light. Also, according to the same method, the samples were collected in lucid glass test tubes which were then sealed with aluminum foil and installed in a place where indoor light was shut off.

Consider `C=C(C)C(=O)OCC(O)CN1CCN(c2cc3c(cc2F)c(=O)c(C(=O)O)cn3C2CC2)CC1` (centres unmarked) [Example 9, 1-cyclopropyl-6-fluoro-1,4-dihydro-7-[4-(2-hydroxy-6-methyl-4-oxa-5-oxo-6-heptenyl)-1-piperazinyl]-4-oxo-3-quinoline carboxylic acid], for which, in the data set with E. coli (KCTC 1682), the “Right After Inoculation (number of bacteria)” value (shortened to “Right After Inoculation”) is recorded as “not detected”, the “After 24 hours (number of bacteria)” value is on record as “not detected” and the “Strain Reduction Rate” value was 100%. For the same molecule, in the data set on S. aureus (KCTC 1621), the “Right After Inoculation” value is “not detected”, the “After 24 hours (number of bacteria)” value is listed as “not detected” and the “Strain Reduction Rate” value is on record as 100%. Moreover, in data set [1] (Direct Ray of Light), the “Colour, Four Weeks Later” value is recorded as “orange”; the “Colour, Initial” value is “white”; the “Colour, Ten Weeks Later” value was “brown”; the “Colour, Twelve Weeks Later” value is on record as “brown”. Moreover, the “Colour, Two Weeks Later” value in data set [1] (Direct Ray of Light) was “yellow”. In data set [1] (Light Shut Off), the “Colour, Eight Weeks Later” value is on record as “white”; the “Colour, Four Weeks Later” value is “white”; the “Colour, Initial” value is listed as “white”; the “Colour, Six Weeks Later” value is reported as “white”. For the same molecule, in data set [1] (Light Shut Off), the “Colour, Ten Weeks Later” value is listed as “white”; the “Colour, Twelve Weeks Later” value is “white”; the “Colour, Two Weeks Later” value was “white”. Further, in data set [1], the Discoloration entry is “not discolored”.

For `C=C(C)C(=O)OCC(O)CN1CCN(c2cc3c(cc2F)c(=O)c(C(=O)O)cn3CC)CC1` (centres unmarked) [Example 10, 1-ethyl-6-fluoro-1,4-dihydro-7-[4-(2-hydroxy-6-methyl-4-oxa-5-oxo-6-heptenyl)-1-piperazinyl]-4-oxo-3-quinoline carboxylic acid], in data set [1] (Direct Ray of Light), the “Colour, Four Weeks Later” value is recorded as “orange”; the “Colour, Initial” value is “white”; the “Colour, Ten Weeks Later” value is “brown”; the “Colour, Twelve Weeks Later” value is on record as “brown”. Also, the “Colour, Two Weeks Later” value in data set [1] (Direct Ray of Light) is “yellow”. In data set [1] (Light Shut Off), the “Colour, Eight Weeks Later” value is on record as “white”; the “Colour, Four Weeks Later” value is recorded as “white”; the “Colour, Initial” value is “white”; the “Colour, Six Weeks Later” value was “white”. In addition, in data set [1] (Light Shut Off), the “Colour, Ten Weeks Later” value is listed as “white”; the “Colour, Twelve Weeks Later” value was “white”; the “Colour, Two Weeks Later” value is “white”. Also, the Discoloration entry in data set [1] is listed as “not discolored”.

With `C=C(C)C(=O)N1CCN(c2cc3c(cc2F)c(=O)c(C(=O)O)cn3C2CC2)CC1` [Example 13, 1-cyclopropyl-6-fluoro-1,4-dihydro-7-[4-(2-methyl-1-oxo-2-propenyl)-1-piperazinyl]-4-oxo-3-quinoline carboxylic acid], in the data set on E. coli (KCTC 1682), the “Right After Inoculation” value is “not detected”, the “After 24 hours (number of bacteria)” value is recorded as “not detected” and the “Strain Reduction Rate” value is given as 100%. For the same molecule, in the data set with S. aureus (KCTC 1621), the “Right After Inoculation” value is “not detected”, the “After 24 hours (number of bacteria)” value is listed as “not detected” and the “Strain Reduction Rate” value came to 100%.
